Source: US20130171263A1, “Snake Powder Extract For Treatment Of Cancer” (priority 2006, published 2013)

Experiments:
[1] = system: tumor cell lines (K562, Raji, Jurkatt, CEM, MCF-7, MDA-MB-231, MD-MB-468, LNCaP, PC-3, HT-29, HCT-116, PANC-1, GL10-1); assay: Tumor cell proliferation, oxygen biosensor; type: cell-based; details: DMSO, ethanol and PBS solutions, at least 24 hour incubation, FIGS. 6-8
Excerpt: Referring to FIGS. 6, 7, and 8 the effect of snake extract on tumor cell proliferation utilizing the DMSO, ethanol, and PBS solutions, is respectively analyzed. The methodology used to analyze tumor cell proliferation was oxygen biosensor. With this methodology culture plates are coated with an oxygen sensitive fluorescent compound embedded in a gas-permeable and hydrophobic matrix permanently attached to the bottom of a multi-well plate. The amount of fluorescence correlates directly to the rate of oxygen consumption in the well, providing a signal that can be directly correlated to cell growth.
In the experiments in FIGS. 1-8, the experiments were done with an effective amount of each analyzed target cancer cell lines dissolved within each snake extract solution measured as noted in each Figure for at least a 24 hour incubation period.
The following cell lines were utilized in the tests listed above: • Leukemia/Lymphoma: K562, Raji, Jurkatt, CEM; • Breast Carcinoma MCF-7, MDA-MB-231, MD-MB-468; • Prostate Carcinoma LNCaP, PC-3; • Colorectal Carcinoma: HT-29, HCT-116; • Pancreatic Carcinoma: PANC-1; • Gliobastaoma: GL10-1.

Artemia salina = assay: Brine shrimp lethality assay; type: in vivo; details: 24 h, nauplii
Description: The eggs of brine shrimp, Airtime salina (Leach), are used in monitoring bioactive compounds. The eggs are readily available in pet shops at low cost and remain viable for years in the dry state. The brine shrimp assay has advantages of being rapid (24 hrs), inexpensive, and simple. No aseptic techniques are required. It easily utilizes a large number of organisms for statistical validation and requires no special equipment and a relatively small amount of sample.
The assay was carried out with Artemia salina eggs. 50 mg of Artemia salina eggs in a beaker containing sea salt (6 g), yeast (0.9 mg) and distilled water (150 ml) were incubated at 27-28° C. for 24 hrs. The newly hatched nauplii were concentrated. From this volume, aliquots of 50 μl (approximately 18-20 nauplii) were pipette directly into a 24 well plates containing sea water (sw), −ve control (DMSO+sw), +ve control (emetine) or different concentrations of extracts (62.5-500 μg/ml). Assay was carried out in triplicate. The plates were sealed and incubated at 27-28° C. for 24 h. At the end of the 24-h incubation period, the content of each well was pipette into a watch glass individually. Survival was assessed by scoring the number of dead nauplii using a microscope. Once counts of dead nauplii had been taken, 0.5 ml of methanol was added to kill all remaining nauplii. The contents of each well were then recorded and result tabulated as (X/Y; where X=number dead and Y=number of dead and alive).

angiogenesis = details: elicited by basic fibroblast growth factor; cited from earlier work
B16F10 solid tumor = details: cited from earlier work
MDA-MB-435 tumor masses = details: cited from earlier work
breast cancer cells = details: cited from earlier work

Molecule: CC[C@@]1(O)C(=O)OCc2c1cc1n(c2=O)Cc2cc3ccccc3nc2-1 [Camptothecin]
- inhibiting cell proliferation [1]: more effective at inhibiting cell proliferation of different cell lines than the snake powder extract

Molecule: CC[C@H]1CN2CCc3cc(OC)c(OC)cc3[C@@H]2C[C@@H]1C[C@H]1NCCc2cc(OC)c(OC)cc21 [Emetine]
- % mortality (Artemia salina; concentration 62.5 (extracts 62.5-500 μg/ml)): 58.2%
- % mortality (Artemia salina; concentration 125 (extracts 62.5-500 μg/ml)): 100%
- % mortality (Artemia salina; concentration 250 (extracts 62.5-500 μg/ml)): 100%
- % mortality (Artemia salina; concentration 500 (extracts 62.5-500 μg/ml)): 100%

Molecule: Rhodostomin
- angiogenesis (angiogenesis): inhibit angiogenesis
- survival (B16F10 solid tumor; C57BL/6 mice): prolonged survival
- tumor growth (B16F10 solid tumor; subcutaneously inoculated B16F10 solid tumor): suppressed tumor growth

Molecule: Contortrostatin
- angiogenesis induced by breast cancer (MDA-MB-435 tumor masses; immunohistochemical quantitation of vascular endothelial cells in tumor tissue): inhibiting angiogenesis
- inhibited growth of tumor (MDA-MB-435 tumor masses; injected daily at 5 microgram per mouse): 74%
- cytotoxicity to cancer cells (breast cancer cells): not cytotoxic
- proliferation of the breast cancer cells in vitro (breast cancer cells): does not inhibit proliferation
